What follows are compounds tested against T1, human TGR5 (Homo sapiens, UniProt Q8TDU6) (assay: Cell-based TGR5 assay (cAMP generation, HTRF)). Settings: HEK293 cells stably transfected with human TGR5; cAMP by HTRF; 30 minutes at 37° C.; read-out: pEC50 Human TGR5 (converted).
T1 construct: expressed in transfected cells; host or cells: HEK293
T1 sequence (Q8TDU6 1-330): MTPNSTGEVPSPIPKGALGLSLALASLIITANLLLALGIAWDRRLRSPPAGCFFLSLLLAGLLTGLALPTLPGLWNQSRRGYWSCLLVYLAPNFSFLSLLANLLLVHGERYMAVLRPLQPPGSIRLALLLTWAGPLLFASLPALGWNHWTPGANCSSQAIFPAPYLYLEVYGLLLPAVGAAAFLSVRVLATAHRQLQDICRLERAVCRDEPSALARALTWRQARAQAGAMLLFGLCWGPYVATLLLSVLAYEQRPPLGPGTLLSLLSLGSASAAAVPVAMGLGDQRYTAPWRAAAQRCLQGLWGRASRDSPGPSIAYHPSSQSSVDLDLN
Outline: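 Read-out was HTRF detection of cAMP, converted to concentration via a standard curve and fitted (3-parameter logistic) for pEC50 and maximal response. Agonist stimulation used HEK293 cells stably transfected with human TGR5, incubated 30 min at 37° C in IBMX-containing buffer at 0.05 nM to 10 μM compound.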

EC50 [nM] | SMILES
< 100 | CCS(=O)(=O)CCN(CCCCC(C)c1ccc(Cl)c(CNC2(c3cnccc3-c3ccccc3OC3CC3)CC2)c1)C(=O)[C@@H](O)[C@@H](O)[C@H](O)[C@@H](O)CO (stereo partly drawn) [Compound I-296, (2S,3S,4R,5S)-N-(5-{4-chloro-3-[({1-[4-(2-cyclopropoxyphenyl)pyridin-3-yl]cyclopropyl}amino)methyl]phenyl}hexyl)-N-[2-(ethanesulfonyl)ethyl]-2,3,4,5,6-pentahydroxyhexanamide]
< 100 | CC(CCCN(CCCCNS(C)(=O)=O)C(=O)[C@@H](O)[C@@H](O)[C@H](O)[C@@H](O)CO)c1ccc(Cl)c(CNC2(c3cnccc3-c3ccccc3OC3CC3)CC2)c1 (stereo partly drawn) [Compound I-297, (2S,3S,4R,5S)-N-(4-{4-chloro-3-[({1-[4-(2-cyclopropoxyphenyl)pyridin-3-yl]cyclopropyl}amino)methyl]phenyl}pentyl)-2,3,4,5,6-pentahydroxy-N-(4-methanesulfonamidobutyl) hexanamide]
< 100 | CC(CCCN(CCN1CCS(=O)(=O)CC1)C(=O)[C@@H](O)[C@@H](O)[C@H](O)[C@@H](O)CO)c1ccc(Cl)c(CNC2(c3cnccc3-c3ccccc3OC3CC3)CC2)c1 (stereo partly drawn) [Compound I-298, (2S,3S,4R,5S)-N-(4-{4-chloro-3-[({1-[4-(2-cyclopropoxyphenyl)pyridin-3-yl]cyclopropyl}amino)methyl]phenyl}pentyl)-N-[2-(1,1-dioxo-1λ^6,4-thiomorpholin-4-yl)ethyl]-2,3,4,5,6-pentahydroxyhexanamide]
< 100 | Cc1ccc(C(C)CCCNC(=O)[C@@H](O)[C@@H](O)[C@H](O)[C@@H](O)CO)cc1CNC1(c2cnccc2-c2ccccc2OC2CC2)CC1 (stereo partly drawn) [Compound I-299, (2S,3S,4R,5S)-N-(4-{3-[({1-[4-(2-cyclopropoxyphenyl)pyridin-3-yl]cyclopropyl}amino)methyl]-4-methylphenyl}pentyl)-2,3,4,5,6-pentahydroxyhexanamide]
< 100 | Cc1ccc(C(C)CCCCNC(=O)[C@@H](O)[C@@H](O)[C@H](O)[C@@H](O)CO)cc1CNC1(c2cnccc2-c2ccccc2OC2CC2)CC1 (stereo partly drawn) [Compound I-300, (2S,3S,4R,5S)-N-(5-{3-[({1-[4-(2-cyclopropoxyphenyl)pyridin-3-yl]cyclopropyl}amino)methyl]-4-methylphenyl}hexyl)-2,3,4,5,6-pentahydroxyhexanamide]
< 100 | Cc1ccc(C(C)CCCN(C)C(=O)[C@@H](O)[C@@H](O)[C@H](O)[C@@H](O)CO)cc1CNC1(c2cnccc2-c2ccccc2OC2CC2)CC1 (stereo partly drawn) [Compound I-301, (2S,3S,4R,5S)-N-(4-{3-[({1-[4-(2-cyclopropoxyphenyl)pyridin-3-yl]cyclopropyl}amino)methyl]-4-methylphenyl}pentyl)-2,3,4,5,6-pentahydroxy-N-methylhexanamide]
< 100 | COCCN(CCCC(C)c1ccc(C)c(CNC2(c3cnccc3-c3ccccc3OC3CC3)CC2)c1)C(=O)[C@@H](O)[C@@H](O)[C@H](O)[C@@H](O)CO (stereo partly drawn) [Compound I-302, (2S,3S,4R,5S)-N-(4-{3-[({1-[4-(2-cyclopropoxyphenyl)pyridin-3-yl]cyclopropyl}amino)methyl]-4-methylphenyl}pentyl)-2,3,4,5,6-pentahydroxy-N-(2-methoxyethyl)hexanamide]
< 100 | COCCCN(CCCC(C)c1ccc(C)c(CNC2(c3cnccc3-c3ccccc3OC3CC3)CC2)c1)C(=O)[C@@H](O)[C@@H](O)[C@H](O)[C@@H](O)CO (stereo partly drawn) [Compound I-303, (2S,3S,4R,5S)-N-(4-{3-[({1-[4-(2-cyclopropoxyphenyl)pyridin-3-yl]cyclopropyl}amino)methyl]-4-methylphenyl}pentyl)-2,3,4,5,6-pentahydroxy-N-(3-methoxypropyl)hexanamide]
< 100 | Cc1ccc(C(C)CCCN(C(=O)[C@@H](O)[C@@H](O)[C@H](O)[C@@H](O)CO)C2CCOCC2)cc1CNC1(c2cnccc2-c2ccccc2OC2CC2)CC1 (stereo partly drawn) [Compound I-304, (2S,3S,4R,5S)-N-(4-{3-[({1-[4-(2-cyclopropoxyphenyl)pyridin-3-yl]cyclopropyl}amino)methyl]-4-methylphenyl}pentyl)-2,3,4,5,6-pentahydroxy-N-(oxan-4-yl)hexanamide]
< 100 | Cc1ccc(C(C)CCCN(CCS(C)(=O)=O)C(=O)[C@@H](O)[C@@H](O)[C@H](O)[C@@H](O)CO)cc1CNC1(c2cnccc2-c2ccccc2OC2CC2)CC1 (stereo partly drawn) [Compound I-305, (2S,3S,4R,5S)-N-(4-{3-[({1-[4-(2-cyclopropoxyphenyl)pyridin-3-yl]cyclopropyl}amino)methyl]-4-methylphenyl}pentyl)-2,3,4,5,6-pentahydroxy-N-(2-methanesulfonylethyl) hexanamide]
< 100 | Cc1ccc(C(C)CCCN(C(=O)[C@@H](O)[C@@H](O)[C@H](O)[C@@H](O)CO)C2CCS(=O)(=O)CC2)cc1CNC1(c2cnccc2-c2ccccc2OC2CC2)CC1 (stereo partly drawn) [Compound I-306, (2S,3S,4R,5S)-N-(4-{3-[({1-[4-(2-cyclopropoxyphenyl)pyridin-3-yl]cyclopropyl}amino)methyl]-4-methylphenyl}pentyl)-N-(1,1-dioxo-1λ^6-thian-4-yl)-2,3,4,5,6-pentahydroxyhexanamide]
< 100 | CCS(=O)(=O)CCN(CCCC(C)c1ccc(C)c(CNC2(c3cnccc3-c3ccccc3OC3CC3)CC2)c1)C(=O)[C@@H](O)[C@@H](O)[C@H](O)[C@@H](O)CO (stereo partly drawn) [Compound I-307, (2S,3S,4R,5S)-N-(4-{3-[({1-[4-(2-cyclopropoxyphenyl)pyridin-3-yl]cyclopropyl}amino)methyl]-4-methylphenyl}pentyl)-N-[2-(ethanesulfonyl)ethyl]-2,3,4,5,6-pentahydroxyhexanamide]
< 100 | CC(CCCCNC(=O)[C@@H](O)[C@@H](O)[C@H](O)[C@@H](O)CO)c1ccc(Cl)c(COC2(c3cnccc3-c3ccccc3OC3CC3)CC2)c1 (stereo partly drawn) [Compound I-308, (2S,3S,4R,5S)-N-{5-[4-chloro-3-({1-[4-(2-cyclopropoxyphenyl)pyridin-3-yl]cyclopropoxy}methyl)phenyl]hexyl}-2,3,4,5,6-pentahydroxyhexanamide]
< 100 | CC(CCCN(CCS(C)(=O)=O)C(=O)[C@@H](O)[C@@H](O)[C@H](O)[C@@H](O)CO)c1ccc(Cl)c(COC2(c3cnccc3-c3ccccc3OC3CC3)CC2)c1 (stereo partly drawn) [Compound I-309, (2S,3S,4R,5S)-N-(4-[4-chloro-3-({1-[4-(2-cyclopropoxyphenyl)pyridin-3-yl]cyclopropoxy)methyl)phenyl]pentyl}-2,3,4,5,6-pentahydroxy-N-(2-methanesulfonylethyl)hexanamide]
< 100 | CCS(=O)(=O)CCN(CCCC(C)c1ccc(Cl)c(COC2(c3cnccc3-c3ccccc3OC3CC3)CC2)c1)C(=O)[C@@H](O)[C@@H](O)[C@H](O)[C@@H](O)CO (stereo partly drawn) [Compound I-310, (2S,3S,4R,5S)-N-{4-[4-chloro-3-({1-[4-(2-cyclopropoxyphenyl)pyridin-3-yl]cyclopropoxy}methyl)phenyl]pentyl}-N-[2-(ethanesulfonyl)ethyl]-2,3,4,5,6-pentahydroxyhexanamide]
< 100 | CC(CCCN(C(=O)[C@@H](O)[C@@H](O)[C@H](O)[C@@H](O)CO)C1CCS(=O)(=O)CC1)c1ccc(Cl)c(COC2(c3cnccc3-c3ccccc3OC3CC3)CC2)c1 (stereo partly drawn) [Compound I-311, (2S,3S,4R,5S)-N-{4-[4-chloro-3-({1-[4-(2-cyclopropoxyphenyl)pyridin-3-yl]cyclopropoxy}methyl)phenyl]pentyl}-N-(1,1-dioxo-1λ^6-thian-4-yl)-2,3,4,5,6-pentahydroxyhexanamide]
< 100 | Cc1ccc(C(C)CCCCNC(=O)[C@@H](O)[C@@H](O)[C@H](O)[C@@H](O)CO)cc1COC1(c2cnccc2-c2ccccc2OC2CC2)CC1 (stereo partly drawn) [Compound I-312, (2S,3S,4R,5S)-N-{5-[3-({1-[4-(2-cyclopropoxyphenyl)pyridin-3-yl]cyclopropoxy}methyl)-4-methylphenyl]hexyl}-2,3,4,5,6-pentahydroxyhexanamide]
< 100 | CC(CCCC(=O)N[C@@H](CO)[C@@H](O)[C@H](O)[C@H](O)CO)c1ccc(Cl)c(CNC2(c3cnccc3-c3ccccc3OC3CC3)CC2)c1 (stereo partly drawn) [Compound I-313, 5-{4-chloro-3-[({1-[4-(2-cyclopropoxyphenyl)pyridin-3-yl]cyclopropyl}amino)methyl]phenyl}-N-[(2S,3R,4S,5R)-1,3,4,5,6-pentahydroxyhexan-2-yl]hexanamide]
< 100 | CC(CCCC(=O)NC[C@H](O)[C@@H](O)[C@H](O)[C@H](O)CO)c1ccc(Cl)c(CNC2(c3cnccc3-c3ccccc3OC3CC3)CC2)c1 (stereo partly drawn) [Compound I-316, 5-{4-chloro-3-[({1-[4-(2-cyclopropoxyphenyl)pyridin-3-yl]cyclopropyl}amino)methyl]phenyl}-N-[(2S,3R,4R,5R)-2,3,4,5,6-pentahydroxyhexyl]hexanamide]
< 100 | CC(CCCCC(=O)NC[C@H](O)[C@@H](O)[C@H](O)[C@H](O)CO)c1ccc(Cl)c(CNC2(c3cnccc3-c3ccccc3OC3CC3)CC2)c1 (stereo partly drawn) [Compound I-317, 6-{4-chloro-3-[({1-[4-(2-cyclopropoxyphenyl)pyridin-3-yl]cyclopropyl}amino)methyl]phenyl}-N-[(2S,3R,4R,5R)-2,3,4,5,6-pentahydroxyhexyl]heptanamide]

From patent publication US12084472B2 (Ardelyx, Inc., priority 2015, dated 2024)
